Measured values: patent US7056917B2, “Drug efflux pump inhibitor” (Daiichi Pharmaceutical Co., Ltd., priority 2001, dated 2006)

What was measured:
[1] = tested on: Pseudomonas aeruginosa PAM 1723 strain highly expressing the drug efflux pump; experiment: Effect of combined use with antimicrobial agent (levofloxacin, aztreonam) on multidrug resistant Pseudomonas aeruginosa; type: cell-based; details: 18 hours, MHB; for MPC8 AZT: minimum concentration of test compound required to enhance antibacterial activity of aztreonam at 1/8 or less of MIC; for MPC4 LVFX: minimum concentration of test compound required to enhance antibacterial activity of levofloxacin applied at 1/4 of MIC; for MPC8 LVFX: minimum concentration of test compound required to enhance antibacterial activity of levofloxacin applied at 1/8 or less of MIC
Source text: Effect of Combined Use with Antimicrobial Agent on Multidrug Resistant Pseudomonas aeruginosa
As multidrug resistant Pseudomonas aeruginosa, Pseudomonas aeruginosa PAM 1723 strain highly expressing the drug efflux pump was used. As antimicrobial drugs for the combinational uses, levofloxacin (LVFX) as a quinolone antibacterial agent and aztreonam (AZT) as a monobactam antibiotic were used. Each of the compounds shown in Table 1 with Example No., which falls within the compounds of the present invention, was subjected to the measurement of its minimum concentration (μg/ml) that was required to enhance the antibacterial activity of levofloxacin when the test compound was used in combination with levofloxacin applied at a concentration of 1/4, or 1/8 or less of the minimum inhibitory concentration against the PAM 1723 strain. […] Effects as combinational uses for 18 hours was indicated for each of the drugs. Effects were determined by visually observing the turbidity of the medium. The Müller-Hinton broth (MHB, Difco) was used as a medium, and the inoculum of the bacteria was 1×10^6 CFU/ml.

[2] = tested on: Pseudomonas aeruginosa wild strain PAM 1020; experiment: Combined use of a pump inhibitor, levofloxacin (LVFX) and meropenem (MEPM) evaluated by the three-dimensional checker board method; type: cell-based; details: for MIC: Pseudomonas aeruginosa, agent used alone, PAM 1020 strain
Description: (1) Effect of Combined Used of a Pump Inhibitor, Levofloxacin (LVFX) and Meropenem (MEPM) Evaluated by the Three-Dimensional Checker Board Method
The effect was measured by the three-dimensional checker board method by using Pseudomonas aeruginosa wild strain PAM 1020. The test strain was inoculated into Mueller-Hinton broth containing LVFX, MEPM (at 11 concentration levels and 0 μg/ml) and the compound of Example 26 (40-0.625 μg/ml and 0 μg/ml) at a concentration of 10^6 CFU/ml and cultured at 37° C. for 18 hours. Then, MIC was measured for sole and combined use. Measurement was performed by the checker board method and FIC index was calculated according to the following equation. FIC index=a/a0+b/b0+c/c0 wherein a0: MIC for Agent A used alone, a: MIC for Agent A when Agents A, B and C are used in combination, b0: MIC for Agent B used alone, b: MIC for Agent B when Agents A, B and C are used in combination, c0: MIC for Agent C used alone, c: MIC for Agent C when Agents A, B and C are used in combination.
It was determined that there was synergistic effect when FIC index was 0.75 or less, additive effect or weak synergistic effect when the index was more than 0.75 but not more than 1.125, no effect of combined use when the index was more than 1.125 but not more than 3.0, and antagonistic effect when the index was more than 3.0.

CC(C)c1csc(CCc2ccn3c(=O)c(/C=C/C(=O)NS(C)(=O)=O)c(N4CCOCC4)nc3c2)n1 [Example 98, N-((E)-3-{8-[2-(4-Isopropyl-1,3-thiazol-2-yl)ethyl]-2-morpholino-4-oxo-4H -pyrido[1,2-a]pyrimidin-3-yl}-2-propenoyl)methanesulfonamide]
MPC8 AZT [1]: 4 µg/mL
MPC4 LVFX [1]: 1 µg/mL
MPC8 LVFX [1]: 4 µg/mL

CC(C)(C)c1csc(NC(=O)c2ccn3c(=O)c(/C=C/C(=O)O)c(N4CCC[C@@H](OC(N)=O)C4)nc3c2)n1 [Example 18, (E)-3-[2-{(3R)-3-[(Aminocarbonyl)oxy]hexahydro-1-pyridinyl}-8-({[4-(tert-butyl)-1,3-thiazol-2-yl]amino}carbonyl)-4-oxo-4H-pyrido[1,2-a]pyrimidin-3-yl]-2-propenoic acid]
MPC8 AZT [1]: 0.5 µg/mL
MPC4 LVFX [1]: ≦0.25 μg/ml
MPC8 LVFX [1]: 1 µg/mL

CC(C)c1csc(COc2ccn3c(=O)c(/C=C/C(=O)O)c(N4CCCC(O)C4)nc3c2)n1 (centres unmarked) [Example 5, (E)-3-{2-(3-Hydroxypiperidino)-8-[(4-isopropyl-1,3-thiazol-2-yl)methoxy]-4-oxo-4H-pyrido[1,2-a]pyrimidin-3-yl}-2-propenoic acid]
MPC8 AZT [1]: 8 µg/mL
MPC4 LVFX [1]: 0.5 µg/mL
MPC8 LVFX [1]: 8 µg/mL

CC(C)c1csc(CCc2ccn3c(=O)c(/C=C/C(=O)[O-])c(N4CCN(C(=O)C[N+]56CCC(CC5)CC6)CC4)nc3c2)n1 [Example 94, (E)-3-{2-4-[2-(1-Azabicyclo[2.2.2]oct-1-yl)acetyl]piperazino-8-[2-(4-isopropyl-1,3-thiazol-2-yl)ethyl]-4-oxo-4H-pyrido[1,2-a]pyrimidin-3-yl}-2-propenoic acid]
MPC8 AZT [1]: 16 µg/mL
MPC4 LVFX [1]: 4 µg/mL
MPC8 LVFX [1]: 16 µg/mL

C[C@H]1COc2c(N3CCN(C)CC3)c(F)cc3c(=O)c(C(=O)O)cn1c23 [LVFX, levofloxacin]
FIC index ([2]; LVFX + MEPM 0.016 μg/ml, compound of Example 26 0 μg/ml, PAM 1020): 1.031
FIC index ([2]; LVFX + MEPM 0.0313 μg/ml, compound of Example 26 0 μg/ml, PAM 1020): 1.0625
FIC index ([2]; LVFX + MEPM 0.0625 μg/ml, compound of Example 26 0 μg/ml, PAM 1020): 1.125
FIC index ([2]; LVFX + MEPM 0.125 μg/ml, compound of Example 26 0 μg/ml, PAM 1020): 1.250
FIC index ([2]; LVFX + MEPM 0.25 μg/ml, compound of Example 26 0 μg/ml, PAM 1020): 1.5
LVFX conc. ([2]; LVFX conc. in combination with MEPM 0.016 μg/ml and compound of Example 26 0.625 μg/ml, PAM 1020): 0.25 µg/mL
LVFX conc. ([2]; LVFX conc. in combination with MEPM 0.016 μg/ml and compound of Example 26 1.25 μg/ml, PAM 1020): 0.25 µg/mL
LVFX conc. ([2]; LVFX conc. in combination with MEPM 0.016 μg/ml and compound of Example 26 2.5 μg/ml, PAM 1020): 0.25 µg/mL
LVFX conc. ([2]; LVFX conc. in combination with MEPM 0.016 μg/ml and compound of Example 26 5 μg/ml, PAM 1020): 0.125 µg/mL
LVFX conc. ([2]; LVFX conc. in combination with MEPM 0.016 μg/ml and compound of Example 26 10 μg/ml, PAM 1020): 0.125 µg/mL
LVFX conc. ([2]; LVFX conc. in combination with MEPM 0.016 μg/ml and compound of Example 26 20 μg/ml, PAM 1020): 0.125 µg/mL
LVFX conc. ([2]; LVFX conc. in combination with MEPM 0.016 μg/ml and compound of Example 26 40 μg/ml, PAM 1020): 0.125 µg/mL
LVFX conc. ([2]; LVFX conc. in combination with MEPM 0.016 μg/ml, compound of Example 26 0 μg/ml, PAM 1020): 0.25 µg/mL
LVFX conc. ([2]; LVFX conc. in combination with MEPM 0.0313 μg/ml and compound of Example 26 0.625 μg/ml, PAM 1020): 0.25 µg/mL
LVFX conc. ([2]; LVFX conc. in combination with MEPM 0.0313 μg/ml and compound of Example 26 1.25 μg/ml, PAM 1020): 0.25 µg/mL
LVFX conc. ([2]; LVFX conc. in combination with MEPM 0.0313 μg/ml and compound of Example 26 2.5 μg/ml, PAM 1020): 0.125 µg/mL
LVFX conc. ([2]; LVFX conc. in combination with MEPM 0.0313 μg/ml and compound of Example 26 5 μg/ml, PAM 1020): 0.125 µg/mL
LVFX conc. ([2]; LVFX conc. in combination with MEPM 0.0313 μg/ml and compound of Example 26 10 μg/ml, PAM 1020): 0.125 µg/mL
LVFX conc. ([2]; LVFX conc. in combination with MEPM 0.0313 μg/ml and compound of Example 26 20 μg/ml, PAM 1020): 0.125 µg/mL
LVFX conc. ([2]; LVFX conc. in combination with MEPM 0.0313 μg/ml and compound of Example 26 40 μg/ml, PAM 1020): 0.125 µg/mL
LVFX conc. ([2]; LVFX conc. in combination with MEPM 0.0313 μg/ml, compound of Example 26 0 μg/ml, PAM 1020): 0.25 µg/mL
LVFX conc. ([2]; LVFX conc. in combination with MEPM 0.0625 μg/ml and compound of Example 26 0.625 μg/ml, PAM 1020): 0.25 µg/mL
LVFX conc. ([2]; LVFX conc. in combination with MEPM 0.0625 μg/ml and compound of Example 26 1.25 μg/ml, PAM 1020): 0.125 µg/mL
LVFX conc. ([2]; LVFX conc. in combination with MEPM 0.0625 μg/ml and compound of Example 26 2.5 μg/ml, PAM 1020): 0.125 µg/mL
LVFX conc. ([2]; LVFX conc. in combination with MEPM 0.0625 μg/ml and compound of Example 26 5 μg/ml, PAM 1020): 0.0625 µg/mL
LVFX conc. ([2]; LVFX conc. in combination with MEPM 0.0625 μg/ml and compound of Example 26 10 μg/ml, PAM 1020): 0.0625 µg/mL
LVFX conc. ([2]; LVFX conc. in combination with MEPM 0.0625 μg/ml and compound of Example 26 20 μg/ml, PAM 1020): 0.0313 µg/mL
LVFX conc. ([2]; LVFX conc. in combination with MEPM 0.0625 μg/ml and compound of Example 26 40 μg/ml, PAM 1020): 0.0313 µg/mL
LVFX conc. ([2]; LVFX conc. in combination with MEPM 0.0625 μg/ml, compound of Example 26 0 μg/ml, PAM 1020): 0.25 µg/mL
LVFX conc. ([2]; LVFX conc. in combination with MEPM 0.125 μg/ml and compound of Example 26 0.625 μg/ml, PAM 1020): 0.125 µg/mL
LVFX conc. ([2]; LVFX conc. in combination with MEPM 0.125 μg/ml and compound of Example 26 1.25 μg/ml, PAM 1020): 0.0625 µg/mL
LVFX conc. ([2]; LVFX conc. in combination with MEPM 0.125 μg/ml and compound of Example 26 2.5 μg/ml, PAM 1020): 0.0313 µg/mL
LVFX conc. ([2]; LVFX conc. in combination with MEPM 0.125 μg/ml and compound of Example 26 5 μg/ml, PAM 1020): 0.0156 µg/mL
LVFX conc. ([2]; LVFX conc. in combination with MEPM 0.125 μg/ml and compound of Example 26 10 μg/ml, PAM 1020): 0.0039 µg/mL
LVFX conc. ([2]; LVFX conc. in combination with MEPM 0.125 μg/ml, compound of Example 26 0 μg/ml, PAM 1020): 0.25 µg/mL
LVFX conc. ([2]; LVFX conc. in combination with MEPM 0.25 μg/ml and compound of Example 26 0.625 μg/ml, PAM 1020): 0.0078 µg/mL
LVFX conc. ([2]; LVFX conc. in combination with MEPM 0.25 μg/ml, compound of Example 26 0 μg/ml, PAM 1020): 2 µg/mL
MIC [2]: 0.25 µg/mL

C[C@@H](O)[C@H]1C(=O)N2C(C(=O)O)=C(S[C@@H]3CN[C@H](C(=O)N(C)C)C3)[C@H](C)[C@H]12 [MEPM, Meropenem]
effect of combined use of three types of drugs ([2]; LVFX, MEPM and compound of Example 26 0.625-40 μg/ml, PAM 1020): apparent effects of the addition of MEPM were observed
MIC [2]: 0.5 µg/mL
effect of MEPM on the combined use of two types of drugs, LVFX and the compound of Example 26 ([2]; compound of Example 26 0.625-40 μg/ml, PAM 1020): effects of the addition of MEPM were clearly observed
